Experimental data: patent US20110306606A1, “NOVEL 2,6-SUBSTITUTED-3-NITROPYRIDINE DERIVATIVE, METHOD FOR PREPARING SAME, AND PHARMACEUTICAL COMPOSITION INCLUDING SAME” (priority 2008, published 2011)
Like-named read-outs stand apart in the source and are kept apart here.

What was measured:
[1] = test system: formation of osteoclasts in co-culture of bone marrow cells and osteoblasts; assay: Osteoclastogenesis inhibition via co-culture system (TRAP staining); assay type: cell-based, mice; conditions: Mus musculus, Osteoclast, 168 h; 1 μM compound, 7 days co-culture, TRAP-positive multinucleated osteoclasts vs vehicle control
In short: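 Bone marrow cells from male ddY mice were co-cultured with osteoblasts for 7 days in α-MEM/10% FBS with 10^−8 M 1α,25-dihydroxyvitamin D3 and dexamethasone. Compound was present at 1 μM final and refreshed every 2–3 days. TRAP-positive cells with 6–7 nuclei were counted, with % inhibition relative to DMSO vehicle (n=4).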

[2] = test system: Osteoblasts (Calvarial cells); conditions: ICR, mouse, 72 h, 1 μM
[3] = test system: Osteoblasts (Calvarial cells); assay: Alkaline phosphatase (ALP) activity in osteoblasts (Calvarial cells); assay type: cell-based, mice; conditions: Mus musculus, 72 h; 1 μM compound, 3 days, Calvarial cell; read-out: ALP activity (1 μM, % of Control) Calvarial cell
In short: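 Primary calvarial osteoblasts or MC3T3-E1 cells in α-MEM with 10% FBS were treated with 1 μM compound, against a 0.1% DMSO vehicle. Cell lysates were incubated with p-nitrophenylphosphate at 37° for 30 minutes and read at 405 nm. ALP activity was expressed as p-nitrophenol/μg protein/min and reported as % change versus vehicle.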

MC3T3-E1 cells = assay: Alkaline phosphatase (ALP) activity in MC3T3-E1 cells; assay type: cell-based; conditions: 1 μM compound, 3 days; for activity at 1 µM: Mus musculus, 72 h, MC3T3-E1 cell, read-out: ALP activity (1 μM, % of Control) MC3T3-E1 cell
Experimental: Differentiation and activity of osteoblasts were indirectly evaluated by measuring an ALP activity having a close relationship with osteogenesis.
Osteoblasts (Calvarial cells) prepared in Experimental Example 1 and MC3T3-E1 cells (available from RIKEN Cell Bank, Japan) were collected in α-MEM supplemented with 10% FBS, followed by cell counting. The cells were dispensed into 24-well cultureware at a density of 2×10^4 cells/well. After culturing of the cells for 24 hours, the culture media were discarded and replaced with fresh media in which test compounds were diluted to a concentration of 1 μM (1 mL/well). In addition, the vehicle control group containing 0.1% DMSO was also treated. […] When the experiment was terminated, the supernatant was removed and the cells were washed three times with cold phosphate buffer at 4°. 0.2% Triton X-100 was added to the washed cells which were then subjected to three cycles of freezing at −70° and thawing at room temperature for the complete lysis of cells. The cell extracts were pooled and centrifuged to collect the cell supernatant which was used for the measurement of ALP activity and proteins. The protein concentration was measured using a BCA assay kit (manufactured by Sigma-Aldrich). For the measurement of ALP activity, p-nitrophenylphosphate was added to the cell supernatant which was then incubated at 37° for 30 minutes, and the reaction was terminated with the addition of 50 μL of 0.2N sodium hydroxide. The standard curve was plotted at the absorbance of 405 nm using p-nitrophenol as a standard material and then the absorbance of test materials thus reacted was measured to determine the production amount of p-nitrophenol.
The ALP activity was calculated by dividing the amount of p-nitrophenol produced from each test material by the protein amount and the reaction time. Therefore, the unit of ALP activity was given in terms of p-nitrophenol/μg protein/min. The results are given in Tables 28-1 and 28-2 where the ALP activity unit of each test material was given in terms of % change through the comparison between the individual test materials and the vehicle control group.

[4] = test system: Osteoblasts (Calvarial cells); assay: Cytotoxicity test (MTT); conditions: 1 μM compound, 72 hours, in comparison with vehicle control

| SMILES | inhibition at 1 µM [1] [%] | Cell viability (%) Calvarial cell [2] [%] | activity at 1 µM [3] [%] | activity at 1 µM (MC3T3-E1 cells) [%] | Cell viability (%) Calvarial cell [4] [%] | ALP activity (1 μM, % of Control) MC3T3-E1 cell (MC3T3-E1 cells) |
| --- | --- | --- | --- | --- | --- | --- |
| Cc1ccc(Nc2nc(NCCCn3ccnc3)ccc2[N+](=O)[O-])cc1 [Compound 9, 2-(4-methylphenylamino)-6-[(3-imidazol-1-yl)propylamino]-3-nitropyridine] | 93 | 121 | 129 | 175 | – | – |
| COc1ccc(Nc2nc(NC(C)C)ccc2[N+](=O)[O-])cc1 [Compound 16, 2-(4-methoxyphenylamino)-6-(isopropylamino)-3-nitropyridine] | – | 100 | – | 118 | – | – |
| COc1ccc(Nc2nc(N(C)CC3OCCO3)ccc2[N+](=O)[O-])cc1 [Compound 18, 2-(4-methoxyphenylamino)-6-[(N-[1,3]-dioxolan-2-ylmethyl)methylamino]-3-nitropyridine] | – | – | – | – | 91 | 113 % of Control |
| COc1ccc(Nc2nc(N3CCN=C3C)ccc2[N+](=O)[O-])cc1 [Compound 20, 2-(4-methoxyphenylamino)-6-[(2-methyl-4,5-dihydro)imidazol-1-yl]-3-nitropyridine] | – | – | – | – | – | 124 % of Control |
| COc1ccc(Nc2nc(-n3ccnc3C(C)C)ccc2[N+](=O)[O-])cc1 [Compound 21, 2-(4-methoxyphenylamino)-6-[(2-isopropyl)imidazol-1-yl]-3-nitropyridine] | – | 90 | – | 124 | – | – |
| COc1ccc(Nc2nc(NCc3ccncc3)ccc2[N+](=O)[O-])cc1 [Compound 22, 2-(4-methoxyphenylamino)-6-[(4-pyridyl)methylamino]-3-nitropyridine] | – | 92 | 121 | 123 | – | – |
| COc1ccc(Nc2nc(NCCCn3ccnc3)ccc2[N+](=O)[O-])cc1 [Compound 25, 2-(4-methoxyphenylamino)-6-[(3-imidazol-1-yl)propylamino]-3-nitropyridine] | 98 | 101 | 126 | 148 | – | – |
| CC(C)(C)c1ccc(Nc2nc(NCCCn3ccnc3)ccc2[N+](=O)[O-])cc1 [Compound 39, 2-[4-(t-butyl)phenylamino]-6-[(3-imidazol-1-yl)propylamino]-3-nitropyridine] | 98 | 111 | – | 175 | – | – |
| CC(C)(C)c1ccc(Nc2nc(NCCc3ccccn3)ccc2[N+](=O)[O-])cc1 [Compound 40, 2-[4-(t-butyl)phenylamino]-6-[2-(2-pyridyl)ethylamino]-3-nitropyridine] | 89 | 82 | 126 | 210 | – | – |
| CNc1ccc([N+](=O)[O-])c(Nc2ccc(C#N)cc2)n1 [Compound 45, 2-(4-cyanophenylamino)-6-(methylamino)-3-nitropyridine] | – | 89 | 133 | 124 | – | – |
| N#Cc1ccc(Nc2nc(N3CCC(O)CC3)ccc2[N+](=O)[O-])cc1 [Compound 47, 2-(4-cyanophenylamino)-6-(4-hydroxypiperidino)-3-nitropyridine] | – | 88 | 111 | 117 | – | – |
| CC(C)c1nccn1-c1ccc([N+](=O)[O-])c(Nc2ccc(C#N)cc2)n1 [Compound 49, 2-(4-cyanophenylamino)-6-[(2-isopropyl)imidazol-1-yl]-3-nitropyridine] | – | 96 | 112 | 122 | – | – |
| N#Cc1ccc(Nc2nc(NCc3ccncc3)ccc2[N+](=O)[O-])cc1 [Compound 50, 2-(4-cyanophenylamino)-6-[(4-pyridyl)methylamino]-3-nitropyridine] | 94 | 115 | 149 | 177 | – | – |
| N#Cc1cccc(Nc2nc(NCCCn3ccnc3)ccc2[N+](=O)[O-])c1 [Compound 53, 2-[3-cyanophenylamino]-6-[(3-imidazol-1-yl)propylamino]-3-nitropyridine] | 97 | 115 | 134 | 121 | – | – |
| O=[N+]([O-])c1ccc(NCc2ccncc2)nc1Nc1ccc(-n2ccnc2)cc1 [Compound 94, 2-[4-(imidazol-1-yl)phenylamino]-6-[(4-pyridyl)methylamino]-3-nitropyridine] | 93 | 85 | – | 134 | – | – |
| O=[N+]([O-])c1ccc(NCCCn2ccnc2)nc1Nc1ccc(-n2ccnc2)cc1 [Compound 95, 2-[4-(imidazol-1-yl)phenylamino]-6-[(3-imidazol-1-yl)propylamino]-3-nitropyridine] | – | 93 | 138 | 185 | – | – |
| CNc1ccc([N+](=O)[O-])c(Nc2cccc(C(C)=O)c2)n1 [Compound 96, 2-(3-acetylphenylamino)-6-(methylamino)-3-nitropyridine] | – | 90 | – | 137 | – | – |
| CC(=O)c1cccc(Nc2nc(N3CCN=C3C)ccc2[N+](=O)[O-])c1 [Compound 100, 2-(3-acetylphenylamino)-6-[(2-methyl-4,5-dihydro)imidazol-1-yl]-3-nitropyridine] | – | – | – | – | 91 | 126 % of Control |
| CC(=O)c1cccc(Nc2nc(-n3ccnc3C(C)C)ccc2[N+](=O)[O-])c1 [Compound 101, 2-(3-acetylphenylamino)-6-[(2-isopropyl)imidazol-1-yl]-3-nitropyridine] | – | 92 | – | 123 | – | – |
| CC(=O)c1cccc(Nc2nc(NCc3cccnc3)ccc2[N+](=O)[O-])c1 [Compound 102, 2-(3-acetylphenylamino)-6-[(3-pyridyl)methylamino]-3-nitropyridine] | – | 92 | 122 | 126 | – | – |
| CC(=O)c1cccc(Nc2nc(NCc3ccncc3)ccc2[N+](=O)[O-])c1 [Compound 103, 2-(3-acetylphenylamino)-6-[(4-pyridyl)methylamino]-3-nitropyridine] | 74 | 93 | – | 151 | – | – |
| CNc1ccc([N+](=O)[O-])c(Nc2ccc(N3CCOCC3)cc2)n1 [Compound 108, 2-(4-morpholinophenylamino)-6-(methylamino)-3-nitropyridine] | – | 100 | – | 111 | – | – |
| O=[N+]([O-])c1ccc(N2CCC(O)CC2)nc1Nc1ccc(N2CCOCC2)cc1 [Compound 112, 2-(4-morpholinophenylamino)-6-(4-hydroxypiperidino)-3-nitropyridine] | – | 103 | 122 | 148 | – | – |
| O=[N+]([O-])c1ccc(NCc2cccnc2)nc1Nc1ccc(N2CCOCC2)cc1 [Compound 115, 2-(4-morpholinophenylamino)-6-[(3-pyridyl)methylamino]-3-nitropyridine] | 89 | – | 127 | 148 | – | – |
| O=[N+]([O-])c1ccc(NCCCn2ccnc2)nc1Nc1ccc(N2CCOCC2)cc1 [Compound 119, 2-(4-morpholinophenylamino)-6-[(3-imidazol-1-yl)propylamino]-3-nitropyridine] | – | 107 | – | 167 | – | – |
